Experimental data from patent US20230271943A1, “COMPOUNDS AS DHODH INHIBITORS” (Nanjing Zenshine Pharmaceuticals Co., Ltd., priority 2020, published 2023).

Assays:
ZIKV strain = experiment: microbe, parasite or virus in culture; format: cell-based; conditions: Zika virus, Vero, 72 h, read-out: Activity of anti-ZIKV EC50
recombinant human DHODH = recombinant human DHODH (Homo sapiens, UniProt Q02127); experiment: Biochemical enzymatic assay (DCIP bleaching); conditions: DCIP absorbance 600 nm, 60 min RT
Description: The biochemical activity of DHODH was measured by the bleaching of the dye 2,6-dichlorophenolindophenol (DCIP) (Knecht W. et al., Biochem. Pharmacol. 1998, 56, 1259-1264). The assay was conducted in buffer containing 50 mM Tris, 150 mM KCI, and 0.1% Triton® X-100 (pH 8.0). 5 ng DHODH protein in 50 µL assay buffer was mixed in a well of 96-well clear assay plate (Corning Cat#3599) with 25 µL series concentration of inhibitor at room temperature for 30mins prior to adding 25 µL substrate solution (1 mM L-Dihydroorotic acid, 0.1 mM Decylubiquinone, 0.06 mM DCIP). After incubation at RT for 60mins, absorbance at 600 nm was obtained using a PerkinElmer multimode plate-reading spectrophotometer. Purified recombinant human DHODH was purchased from R&D systems (Catalog# 10062-DD-020), L-dihydroorotic acid (Sigma, D7128), decylubiquinone (Sigma, D7911), DCIP (Sigma, D1878) and other chemicals were purchased from Sigma-Aldrich.

in vitro = conditions: dog
MV-4-11 cells = experiment: MV-4-11 cell proliferation assay (CellTiter-Glo); format: cell-based; conditions: Homo sapiens, MV4-11, 72 h, read-out: MV-4-11 Cell Proliferation Assay IC50
Description: 5000 cells/well of MV-4-11 cells were seeded in IMDM 10% fetal calf serum (FBS, BI, Catalog#) in 96-well plates. The next day, cells were incubated with different concentrations of test compounds for 72 h. Cellular viability was analyzed using CellTiter-Glo® Luminescent Cell Viability Assay (Promega, #G7570) according to manufacturer’s instructions.

H7N9 strain = experiment: microbe, parasite or virus in culture; format: cell-based; conditions: Influenza A virus, H7N9, MDCK, 120 h, read-out: Anti-H7N9 EC50
A/PR/8/34 (H1N1) strain = experiment: Antiviral CPE assay in MDCK cells, A/PR/8/34 (H1N1); format: cell-based; conditions: Influenza A virus, 120 h, 5 days, CCK-8, read-out: Activity of anti-A/PR/8/34 (H1N1) EC50
H1N1(XJ49) strain = experiment: Antiviral CPE assay in MDCK cells, H1N1 (XJ49); format: cell-based; conditions: Influenza A virus, H1N1, 120 h, 5 days, CCK-8, read-out: anti-H1N1 (XJ49) EC50

Chain of recombinant human DHODH (Q02127 whole entry): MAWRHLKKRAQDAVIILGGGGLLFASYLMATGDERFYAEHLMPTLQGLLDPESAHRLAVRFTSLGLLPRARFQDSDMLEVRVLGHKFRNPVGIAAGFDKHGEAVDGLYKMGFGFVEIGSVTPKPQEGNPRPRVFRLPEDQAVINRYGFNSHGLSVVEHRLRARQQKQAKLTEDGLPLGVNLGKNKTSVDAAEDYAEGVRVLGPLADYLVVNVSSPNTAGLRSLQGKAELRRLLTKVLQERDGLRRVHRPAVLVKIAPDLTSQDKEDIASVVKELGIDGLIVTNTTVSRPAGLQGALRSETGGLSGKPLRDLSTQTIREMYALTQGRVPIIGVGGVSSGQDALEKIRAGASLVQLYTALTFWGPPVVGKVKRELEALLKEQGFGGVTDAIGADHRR

Q: What does the source list for `CCn1c(CO)nn(-c2cc3c(C(C)C)nn(-c4c(F)cccc4Cl)c(=O)c3cc2F)c1=O` [Compound 4, 2-(2-chloro-6-fluorophenyl)-6-(4-ethyl-3-(hydroxymethyl)-5-oxo-4,5-dihydro-1H-1,2,4-triazol-1-yl)-7-fluoro-4-isopropylphthalazin-1(2H)-one]?
A: EC50 (ZIKV strain): 0.37 nM; IC50 (recombinant human DHODH): 11 nM; CC50 (in vitro): > 1000 nM; IC50 (MV-4-11 cells): 0.9 nM; EC50 (H7N9 strain): 14 nM; EC50 (A/PR/8/34 (H1N1) strain): 23 nM; EC50 (H1N1(XJ49) strain): 5.7 nM

Q: For `O=C1c2c(O)c(=O)ccn2N([C@@H]2c3ccccc3SCc3c2ccc(F)c3F)[C@@H]2COCCN12` [Baloxavir, reference compound], which CC50 (in vitro) is on record?
A: 18 nM

Q: And the EC50 (A/PR/8/34 (H1N1) strain)?
A: 1.1 nM

Q: Which IC50 (recombinant human DHODH) does the source give for `CCn1c(CO)nn(-c2cc3c(cc2F)c(=O)c(-c2c(F)cccc2Cl)nn3C(C)C(F)(F)F)c1=O` (stereo not shown) [Compound 1, 3-(2-chloro-6-fluorophenyl)-7-(4-ethyl-3-(hydroxymethyl)-5-oxo-4,5-dihydro-1H-1,2,4-triazol-1-yl)-6-fluoro-1-(1,1,1-trifluoropropan-2-yl)cinnolin-4(1H)-one] here?
A: 215 nM

Q: What does the source list for `CCC(CC)O[C@@H]1C=C(C(=O)O)C[C@H](N)[C@H]1NC(C)=O` [Oseltamivir acid, reference compound]?
A: CC50 (in vitro): > 100 nM; EC50 (A/PR/8/34 (H1N1) strain): […]

Q: Which IC50 (recombinant human DHODH) does the source give for `CCn1c(CO)nn(-c2cc3c(cc2F)c(=O)c(-c2c(F)cccc2Cl)nn3C(C)C)c1=O` [Compound 2, 3-(2-chloro-6-fluorophenyl)-7-(4-ethyl-3-(hydroxymethyl)-5-oxo-4,5-dihydro-1H-1,2,4-triazol-1-yl)-6-fluoro-1-isopropylcinnolin-4(1H)-one] here?
A: 97 nM

Q: And the CC50 (in vitro)?
A: > 1000 nM

Q: And the IC50 (MV-4-11 cells)?
A: 0.09 nM

Q: And the EC50 (A/PR/8/34 (H1N1) strain)?
A: 64 nM
